From EP4778522A1, “USE OF PYRROLOPYRIMIDINE COMPOUND AND COMPOSITION THEREOF” (Guangzhou Joyo Pharmatech Co., Ltd., priority 2023, dated 2025)
Values joined by “and” are separate entries in the source; they are usually repeats but may differ in a detail not shown here. Identical values can stand only once. Marks after values point to notes of the source that are not given here.

Legend:
[1] = tested on: monobenzone-induced mouse vitiligo model; assay: Monobenzone-induced mouse vitiligo model: hair depigmentation area scoring; format: in vivo, C57BL/6 mice; set-up: Hair depigmentation area scoring: scale not given here
Description: • 1) Animals: C57BL/6 mice, specific pathogen-free (SPF), with equal numbers of females and males. The mice were 6-8 weeks old at grouping, with 10 mice per group. The animals were provided by Charles River Laboratories. • 2) Reagents, positive drugs and test drugs
Monobenzone induction method: after 1 week of adaptive feeding of all the animals, modeling was performed and all black hairs on the back of the mice were removed by a shaver. 10 animals were randomly selected as a normal control group and applied with 50 mg of vaseline once a day; and the remaining 80 animals were used for modeling and applied with 50 mg of 40% monobenzone depigmentation ointment once a day. The applying area of the normal control group and the model group was 2 cm*3 cm of the fixed part of the back, and the modeling was continuously performed for 103 days. In order to prevent the phenomenon that the animals lick the drugs, after the animals were applied with a modeling agent, they needed to be separately placed in an independent cage without padding for a period of time to naturally dry the modeling agent, and then they were placed in a rearing cage for normal rearing. During the modeling process, new hairs grown in the alopecic areas of the backs of the mice were shaved by the shaver and then applied with the drug.
The 40% monobenzone depigmentation ointment was applied every day. After modeling for 53 days, according to a depigmentation area score (see scoring criteria of Table 9), 70 animals successfully modeled in modeling group (score ≥ 2) were randomly divided into 7 groups with 10 mice per group. The mean depigmentation area score of the animals in each group was basically consistent before the administration, and the day of grouping was defined as day 0 of the administration treatment period. Table 8 Grouping and administration regimen
During the whole experiment process, the mice in normal control group (G1) were applied with 50 mg of vaseline once a day; and the mice in each model group (G2-G8) were applied with 50 mg of 40% monobenzone ointment once a day. After modeling for 53 days, the mice were grouped and subjected to drug treatment after grouping consecutively for 50 days. The modeling operation was maintained during the drug intervention period. The mice were applied with the drug twice a day for treatment at an interval of 6 hours or more. […]

[2] = tested on: monobenzone-induced mouse vitiligo model; assay: Monobenzone-induced mouse vitiligo model: skin pathological analysis of melanin-containing hair follicles; format: in vivo, C57BL/6 mice; details: 1.5% ruxolitinib ointment
Description: The mice were euthanized within 2-4 hours after the last administration, and approximately 1 cm^2 of the skin in the center of the depilated part of the mice was taken and fixed with 4% paraformaldehyde. The animal skin tissues were fixed with 4% paraformaldehyde, dehydrated, embedded with paraffin, sectioned and then subjected to HE staining. The stained sections were photographed by white light panoramic scanning, histopathological changes of the skin tissues and inflammatory cell infiltration were observed, and the number of melanin-containing hair follicles and/or the proportion of the melanin-containing hair follicles in the skin were quantitatively analyzed. The panoramic scanning files were opened by using CaseViewer software, a picture view with the length of about 3.8 mm was randomly selected, and the pictures were saved. The number of all the hair follicles and the number of the melanin-containing hair follicles in the picture were counted respectively by using ipwin32 software. The proportion of the melanin-containing hair follicles was calculated according to the following formula: Proportion of melanin-containing hair follicles = number of melanin-containing follicles/number of all follicles

[3] = tested on: imiquimod-induced C3H/HeJ mice alopecia areata model; assay: Imiquimod-induced mouse alopecia areata model: hair growth; format: in vivo; details: Baricitinib 10 mg/kg oral by gavage twice a day for one month, Day 30; for Newly grown hair score: score 0-5
Description: • 1) Animals: female C3H/He mice, SPF, aged 6-8 weeks at grouping. The animals were provided by Beijing Viewsolid Biotech. • 2) Reagents, positive drugs and test drugs
After one week of adaptive feeding of C3H/HeJ mice: modeling was performed by applying imiquimod ointment to the neck, 3 times a week. The mice were carefully taken out, and about 0.05 g of 5% imiquimod ointment was dipped with a clean medical cotton swab and then applied evenly to the skin on the neck over a range of about 1.5 cm×1.5 cm. Before each application, the local part was cleaned by normal saline to remove the residual drug in the previous time. The continuous administration time was no longer than 10 weeks. When alopecia areata with an area size > 1 cm×1 cm was formed at the administration part, the administration was stopped, proving that a preparation model was successful. The mice in the normal control group were modeled by using blank ointment (vaseline ointment).
During the period from the first administration to the end of the last administration after the alopecia areata modeling was successful, the alopecia areata part of each mouse was photographed once every 3 days, the photographing distance, angle and magnification times were fixed, and the hair growth of the alopecic areas on the backs of the mice was recorded.
Visual quantification of the alopecia area images was performed using ImageJ software. The hair growth area (a) and hair loss area (b) were calculated. The hair growth rate was counted and analyzed: hair growth rate (%) = (a/b)* 100%. The newly grown hairs at the alopecia areata part of the mice in each group were scored based on the hair growth rate. Table 14 Scoring criteria of newly grown hairs

[4] = tested on: imiquimod-induced C3H/HeJ mice alopecia areata model; assay: Imiquimod-induced mouse alopecia areata model: number of hair follicles in skin; format: in vivo; details: Baricitinib 10 mg/kg oral by gavage twice a day for one month, skin at alopecia areata part
Description: After the animals were anesthetized and euthanized, the complete skin tissue of the alopecic area was cut along the junction between the normal skin of the back of the mouse and the alopecic area and perpendicular to the skin surface. A part of the tissue was taken, conventionally dehydrated and embedded. The remaining tissue was stored in a refrigerator at -80°C for later use.
The embedded skin tissue was cut into 3 µm-thick sections, and then the sections were dewaxed in xylene, hydrated by gradient ethanol, H&E stained, dehydrated, cleared and mounted. The hair follicles in skin tissue sections from each group were microscopically observed and photographed. The mean number of the hair follicles was calculated using Image J software.

[5] = 30 mg topical twice a day for 50 days

N#CC[C@H](C1CCCC1)n1cc(-c2ncnc3[nH]ccc23)cn1 [ruxolitinib, reference compound]
Hair depigmentation area scoring ([1]; Day 0 (before administration), 1.5% ruxolitinib ointment group): 3.90
Hair depigmentation area scoring ([1]; Day 10, 1.5% ruxolitinib ointment, 30 mg topical twice a day): 3.80 **
Hair depigmentation area scoring ([1]; Day 20, 1.5% ruxolitinib ointment, 30 mg topical twice a day): 3.70 **
Hair depigmentation area scoring ([1]; Day 30, 1.5% ruxolitinib ointment, 30 mg topical twice a day): 3.40 **
Hair depigmentation area scoring ([1]; Day 35, 1.5% ruxolitinib ointment, 30 mg topical twice a day): 2.90 **
Hair depigmentation area scoring ([1]; Day 38, 1.5% ruxolitinib ointment, 30 mg topical twice a day): 2.60 **
Hair depigmentation area scoring ([1]; Day 41, 1.5% ruxolitinib ointment, 30 mg topical twice a day): 2.40 **
Hair depigmentation area scoring ([1]; Day 44, 1.5% ruxolitinib ointment, 30 mg topical twice a day): 2.30 **
Hair depigmentation area scoring ([1]; Day 47, 1.5% ruxolitinib ointment, 30 mg topical twice a day): 2.20 **
Hair depigmentation area scoring ([1]; Day 50, 1.5% ruxolitinib ointment, 30 mg topical twice a day): 2.20 **
mean value of the reduction rate of the depigmentation area score ([1]; day 50, 1.5% ruxolitinib ointment, 30 mg (5 mg/cm^2) topical): 56.9%
number of the melanin-containing hair follicles, times that of the model control group [2]: about 6 times
Number of melanin-containing hair follicles [2, 5]: 41.7±16.7 and 41.7
Proportion of melanin-containing hair follicles (%) [2, 5]: 29.8 ± 9.9% and 29.8%

C=CC[C@@H]1/C=C(\C)C[C@H](C)C[C@H](OC)[C@H]2O[C@@](O)(C(=O)C(=O)N3CCCC[C@H]3C(=O)O[C@H](/C(C)=C/[C@@H]3CC[C@@H](O)[C@H](OC)C3)[C@H](C)[C@@H](O)CC1=O)[C@H](C)C[C@@H]2OC [tacrolimus, reference compound]
Hair depigmentation area scoring ([1]; Day 0 (before administration), 0.03% tacrolimus ointment group): 3.60
Hair depigmentation area scoring ([1]; Day 10, 0.03% tacrolimus ointment, 30 mg topical twice a day): 3.50
Hair depigmentation area scoring ([1]; Day 20, 0.03% tacrolimus ointment, 30 mg topical twice a day): 3.40
Hair depigmentation area scoring ([1]; Day 30, 0.03% tacrolimus ointment, 30 mg topical twice a day): 3.40
Hair depigmentation area scoring ([1]; Day 35, 0.03% tacrolimus ointment, 30 mg topical twice a day): 2.60
Hair depigmentation area scoring ([1]; Day 38, 0.03% tacrolimus ointment, 30 mg topical twice a day): 2.50
Hair depigmentation area scoring ([1]; Day 41, 0.03% tacrolimus ointment, 30 mg topical twice a day): 2.30
Hair depigmentation area scoring ([1]; Day 44, 0.03% tacrolimus ointment, 30 mg topical twice a day): 2.20
Hair depigmentation area scoring ([1]; Day 47, 0.03% tacrolimus ointment, 30 mg topical twice a day): 2.20
Hair depigmentation area scoring ([1]; Day 50, 0.03% tacrolimus ointment, 30 mg topical twice a day): 2.20
reduction rate of the depigmentation area score ([1]; day 50, 0.03% tacrolimus ointment, compared with the model control group): 56.9%

CCS(=O)(=O)N1CC(CC#N)(n2cc(-c3ncnc4[nH]ccc34)cn2)C1 [Baricitinib, reference compound]
Hair growth rate (%) ([3]; listed as Positive control): 69.58 ± 3.23 %
Hair growth rate (%) ([3]; listed as positive drug): 69.58 ± 3.23%
Newly grown hair score ([3]; listed as Positive control): 4.2 ± 0.2
Newly grown hair score ([3]; listed as positive drug): 4.2 ± 0.2
Mean number of hair follicles ([4]; listed as Positive control): 40 ± 7.36
Mean number of hair follicles ([4]; listed as positive drug): 40 ± 7.36
